Test results from article PMC6150365, “Simultaneous Determination of Seven Components in Rat Plasma by the UPLC-MS/MS Method and Application of Pharmacokinetic Studies to SimiaoYong’an Decoction” (Molecules : A Journal of Synthetic Chemistry and Natural …, 2017).

Assay: Pharmacokinetic study in rats after oral administration of SYD extract and its single and combined TCM extracts (UPLC-MS/MS of plasma)
Details: male, Sprague-Dawley, rat, plasma, po, n = 6; for AUC(0-t) / AUC(0-inf) / Cmax / MRT last / MRT inf / Tmax: rat plasma; for MRT last: MRT(0–t); for MRT inf: MRT(0–∞); for half-life: t1/2, rat plasma
[1] = 1.29 g/kg, oral AS extract 1.29 g/kg
[2] = 2.14 g·kg^−1 (extract), oral LJ + GU extract
[3] = 2.15 g/kg, oral LJ extract 2.15 g/kg
[4] = 2.43 g/kg, oral AS + GU extract 2.43 g/kg
[5] = 3.29 g·kg^−1 (extract), oral LJ + AS extract
[6] = 3.29 g·kg^−1 extract, oral LJ + AS extract
[7] = 4.5 g·kg^−1 (extract), oral LJ + SN extract
[8] = 4.5 g·kg^−1 extract, oral LJ + SN extract
[9] = 4.73 g/kg, oral LJ + SN + GU extract 4.73 g/kg
[10] = 5.43 g/kg, oral LJ + SN + AS extract 5.43 g/kg
[11] = 8.25 g/kg, oral SYD extract 8.25 g/kg

**Q.** Which results are given for `O=C(/C=C/c1ccc(O)c(O)c1)O[C@@H]1C[C@](O)(C(=O)O)C[C@@H](O)[C@H]1O` [Chlorogenic acid, chlorogenic acid]?
**A.** AUC(0-t) [1]: 1360 ± 120 ng·h/mL; AUC(0-inf) [1]: 2130 ± 670 ng·h/mL; Cmax [1]: 390 ± 110 ng/mL; MRT last [1]: 1.56 ± 0.67 h; MRT inf [1]: 4.28 ± 2.23 h; Tmax [1]: 0.89 ± 0.33 h; half-life [1]: 212 ± 58.8 min; AUC(0-inf) [2]: 2930 ± 1000 ng·h/mL; Cmax [2]: 1070 ± 190 ng/mL; MRT last [2]: 3.85 ± 0.88 h; MRT inf [2]: 65 ± 64.6 h; Tmax [2]: 1.18 ± 0.78 h; half-life [2]: 489 ± 149 min; AUC(0-t) (2.14 g·kg^−1 extract, oral LJ + GU extract): 1780 ± 290 ng·h/mL; AUC(0-t) [3]: 3940 ± 2120 ng·h/mL; AUC(0-inf) [3]: 5040 ± 2980 ng·h/mL; Cmax [3]: 2410 ± 830 ng/mL; MRT last [3]: 3.12 ± 0.75 h; MRT inf [3]: 24.7 ± 8.81 h; Tmax [3]: 1.11 ± 0.74 h; half-life [3]: 563 ± 172 min; AUC(0-t) [4]: 1150 ± 340 ng·h/mL; AUC(0-inf) [4]: 1980 ± 450 ng·h/mL; Cmax [4]: 290 ± 210 ng/mL; MRT last [4]: 1.78 ± 0.39 h; MRT inf [4]: 3.36 ± 2 h; Tmax [4]: 0.55 ± 0.48 h; half-life [4]: 167 ± 31.8 min; Cmax [5]: 1670 ± 480 ng/mL; MRT last [5]: 3.17 ± 0.75 h; MRT inf [5]: 37.6 ± 36.1 h; Tmax [5]: 1.36 ± 0.69 h; half-life [5]: 428 ± 95.4 min; AUC(0-t) [6]: 2820 ± 750 ng·h/mL; AUC(0-inf) [6]: 3770 ± 1220 ng·h/mL; MRT last [7]: 3.48 ± 0.86 h; MRT inf [7]: 46.8 ± 43.4 h; Tmax [7]: 1.36 ± 1.03 h; half-life [7]: 469 ± 156 min; AUC(0-t) [8]: 2800 ± 1160 ng·h/mL; AUC(0-inf) [8]: 4250 ± 2310 ng·h/mL; Cmax [8]: 1740 ± 750 ng/mL; AUC(0-t) [9]: 2190 ± 480 ng·h/mL; AUC(0-inf) [9]: 3410 ± 640 ng·h/mL; Cmax [9]: 1280 ± 510 ng/mL; MRT last [9]: 3.44 ± 0.29 h; MRT inf [9]: 69.3 ± 73.6 h; half-life [9]: 500 ± 64.2 min; AUC(0-t) [10]: 2550 ± 640 ng·h/mL; AUC(0-inf) [10]: 3690 ± 490 ng·h/mL; Cmax [10]: 1380 ± 370 ng/mL; MRT last [10]: 3.19 ± 0.32 h; MRT inf [10]: 59.5 ± 63.2 h; half-life [10]: 404 ± 102 min; AUC(0-t) [11]: 2540 ± 280 ng·h/mL; AUC(0-inf) [11]: 3650 ± 820 ng·h/mL; Cmax [11]: 1220 ± 80 ng/mL; MRT last [11]: 3.28 ± 0.5 h; MRT inf [11]: 52.6 ± 53.8 h; half-life [11]: 485 ± 100 min; half-life ([…], oral SN + AS + GU extract […]): 477 ± 148 min
